This is an account of results in patent publication US8455475B2 (Gruenenthal GmbH, priority 2009, dated 2013).

Assay [1] concerns the target T1, human B1R (bradykinin receptor 1) (Homo sapiens, UniProt P46663).
T1 construct: expressed in transfected cells; host or cells: CHO K1 cells
T1 sequence (P46663 1-353): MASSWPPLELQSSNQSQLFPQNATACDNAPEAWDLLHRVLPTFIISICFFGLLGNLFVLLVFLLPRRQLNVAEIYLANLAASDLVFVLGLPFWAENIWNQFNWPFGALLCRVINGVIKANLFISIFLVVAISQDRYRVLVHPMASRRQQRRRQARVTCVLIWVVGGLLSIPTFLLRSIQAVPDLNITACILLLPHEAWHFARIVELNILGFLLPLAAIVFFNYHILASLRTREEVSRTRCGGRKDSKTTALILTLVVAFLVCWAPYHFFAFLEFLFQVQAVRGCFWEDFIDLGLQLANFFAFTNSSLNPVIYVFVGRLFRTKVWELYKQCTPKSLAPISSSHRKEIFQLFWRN
Nature of the assay: FLIPR Ca2+ assay (Fluo-4) on CHO K1 cells stably transfected with the human B1R gene (hB1R cells): % inhibition at 10 μM / IC50, agonist Lys-Des-Arg9-bradykinin. Format: cell-based. Particulars: CHO-K1, human B1R. In outline:
(§1)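 Stable CHO K1 lines, Fluo-4 dye, probenecid-containing buffer. Cpd 10 μM or dose range, 10–20 min, then EC80 agonist (h: Lys-Des-Arg9-BK; r: Des-Arg9-BK). Readout peak FC; % inhibition vs max; IC50 from n=2–3, N≥2.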

The target in assay [2] is T2, rat B1R (bradykinin receptor 1) (Rattus norvegicus, UniProt P97583).
T2 construct: expressed in transfected cells; host or cells: CHO K1 cells
T2 sequence (P97583 1-337): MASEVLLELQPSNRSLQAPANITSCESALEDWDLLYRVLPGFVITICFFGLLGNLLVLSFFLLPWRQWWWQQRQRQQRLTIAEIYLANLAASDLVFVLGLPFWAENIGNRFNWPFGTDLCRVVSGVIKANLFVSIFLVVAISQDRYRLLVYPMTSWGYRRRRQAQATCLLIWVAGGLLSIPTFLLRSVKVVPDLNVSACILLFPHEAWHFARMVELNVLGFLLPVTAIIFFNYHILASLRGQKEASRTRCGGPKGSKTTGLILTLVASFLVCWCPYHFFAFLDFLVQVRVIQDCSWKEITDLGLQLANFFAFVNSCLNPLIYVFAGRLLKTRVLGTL
Nature of the assay: FLIPR Ca2+ assay (Fluo-4) on CHO K1 cells stably transfected with the B1R gene of the rat (rB1R cells): % inhibition at 10 μM / IC50, agonist Des-Arg9-bradykinin. Format: cell-based. Particulars: CHO-K1, rat B1R. In outline: as §1

By inhibition is commonly meant the relative decrease from the control value, in per cent.

As to `O=C(NC1CCc2ccc(C(=O)N3CCC4(CC3)CCN(c3cccnc3)CC4)cc21)c1ccccc1Cl` (centres unmarked) [Ind_CC-096, 2-chloro-N-[6-(9-pyridin-3-yl-3,9-diazaspiro[5.5]undecane-3-carbonyl)-2,3-dihydro-1H-inden-1-yl]-benzamide], the inhibition at 10 µM in assay [1] turned out to be 91%; in assay [2], 101%.

Consider `O=C(NC1CCc2ccc(C(=O)N3CCC4(CC3)CCN(c3ccc(F)cc3)CC4)cc21)c1ccccc1Cl` (centres unmarked) [Ind_CC-097, 2-chloro-N-[6-[9-(4-fluorophenyl)-3,9-diazaspiro[5.5]undecane-3-carbonyl]-2,3-dihydro-1H-inden-1-yl]-benzamide], for which the inhibition at 10 µM in assay [1] was determined as 33%; in assay [2], 90%.

For `O=C(NC1CCc2ccc(C(=O)N3CCC4(CCN(Cc5ccncc5)CC4)CC3)cc21)c1ccccc1Cl` (centres unmarked) [Ind_CC-098, 2-chloro-N-[6-[9-(pyridin-4-yl-methyl)-3,9-diazaspiro[5.5]undecane-3-carbonyl]-2,3-dihydro-1H-inden-1-yl]-benzamide], the values for the inhibition at 10 µM in assay [1] and in assay [2] were 34% and 98%, respectively.

Regarding `CN(C)C1(c2ccc(F)cc2)CCC2(CCN(C(=O)c3ccc4c(c3)C(NC(=O)c3ccccc3Cl)CC4)CC2)CC1` (centres unmarked) [Ind_CC-099, 2-chloro-N-[6-[9-dimethylamino-9-(4-fluorophenyl)-3-azaspiro[5.5]undecane-3-carbonyl]-2,3-dihydro-1H-inden-1-yl]-benzamide], the inhibition at 10 µM worked out at 39% in assay [1] and 103% in assay [2].

With `O=C(NC1CCc2ccc(C(=O)N3CCC4(CCN(c5ccncc5)CC4)C3)cc21)c1ccccc1Cl` (centres unmarked) [Ind_CC-100, 2-chloro-N-[6-(8-pyridin-4-yl-2,8-diazaspiro[4.5]decane-2-carbonyl)-2,3-dihydro-1H-inden-1-yl]-benzamide], the inhibition at 10 µM in assay [1] is 100%; in assay [2], 104%.

Regarding `O=C(NC1CCc2ccc(C(=O)N3CCC4(CC3)CCN(c3ccncc3)C4)cc21)c1ccccc1Cl` (centres unmarked) [Ind_CC-101, 2-chloro-N-[6-(2-pyridin-4-yl-2,8-diazaspiro[4.5]decane-8-carbonyl)-2,3-dihydro-1H-inden-1-yl]-benzamide], the inhibition at 10 µM in assay [1] was determined as 100%; in assay [2] it was 102%.

Take `O=C(NC1CCc2ccc(C(=O)N3CCC4(CC3)CCN(c3cccnc3)CC4)cc21)c1sccc1Cl` (centres unmarked) [Ind_CC-102, 3-chloro-N-[6-(9-pyridin-3-yl-3,9-diazaspiro[5.5]undecane-3-carbonyl)-2,3-dihydro-1H-inden-1-yl]-thiophene-2-carboxylic acid amide]: the figures for the inhibition at 10 µM in assay [1] and in assay [2] were 87% and 100%, respectively.

For `O=C(NC1CCc2ccc(C(=O)N3CCC4(CC3)CCN(c3ccc(F)cc3)CC4)cc21)c1sccc1Cl` (centres unmarked) [Ind_CC-103, 3-chloro-N-[6-[9-(4-fluorophenyl)-3,9-diazaspiro[5.5]undecane-3-carbonyl]-2,3-dihydro-1H-inden-1-yl]-thiophene-2-carboxylic acid amide], the results for the inhibition at 10 µM in assay [1] and in assay [2] were 93% and 62%, respectively.

Consider `O=C(NC1CCc2ccc(C(=O)N3CCC4(CCN(Cc5ccncc5)CC4)CC3)cc21)c1sccc1Cl` (centres unmarked) [Ind_CC-104, 3-chloro-N-[6-[9-(pyridin-4-yl-methyl)-3,9-diazaspiro[5.5]undecane-3-carbonyl]-2,3-dihydro-1H-inden-1-yl]-thiophene-2-carboxylic acid amide], for which the inhibition at 10 µM amounted to 33% in assay [1] and 102% in assay [2].

Turning to `CN(C)C1(c2ccc(F)cc2)CCC2(CCN(C(=O)c3ccc4c(c3)C(NC(=O)c3sccc3Cl)CC4)CC2)CC1` (centres unmarked) [Ind_CC-105, 3-chloro-N-[6-[9-dimethylamino-9-(4-fluorophenyl)-3-azaspiro[5.5]undecane-3-carbonyl]-2,3-dihydro-1H-inden-1-yl]-thiophene-2-carboxylic acid amide], the inhibition at 10 µM in assay [1] was found to be 61%; in assay [2], 86%.

With `CN(C(=O)c1ccccc1Cl)C1CCc2ccc(C(=O)N3CCC4(CC3)CCN(c3ccncc3)CC4)cc21` (centres unmarked) [Ind_CC-106, 2-chloro-N-methyl-N-[6-(9-pyridin-4-yl-3,9-diazaspiro[5.5]undecane-3-carbonyl)-2,3-dihydro-1H-inden-1-yl]-benzamide], the inhibition at 10 µM in assay [1] and in assay [2] was 100% in each case.

As for `CN(C(=O)c1ccccc1Cl)C1CCc2ccc(C(=O)N3CCC4(CC3)CCN(c3cccnc3)CC4)cc21` (centres unmarked) [Ind_CC-107, 2-chloro-N-methyl-N-[6-(9-pyridin-3-yl-3,9-diazaspiro[5.5]undecane-3-carbonyl)-2,3-dihydro-1H-inden-1-yl]-benzamide], the inhibition at 10 µM in assay [1] worked out at 78%; in assay [2], 100%.

As for `CN(C(=O)c1ccccc1Cl)C1CCc2ccc(C(=O)N3CCC4(CC3)CCN(c3ccc(F)cc3)CC4)cc21` (centres unmarked) [Ind_CC-108, 2-chloro-N-[6-[9-(4-fluorophenyl)-3,9-diazaspiro[5.5]undecane-3-carbonyl]-2,3-dihydro-1H-inden-1-yl]-N-methyl-benzamide], the inhibition at 10 µM was found to be 23% in assay [1] and 51% in assay [2].

Take `CN(C(=O)c1ccccc1Cl)C1CCc2ccc(C(=O)N3CCC4(CCN(Cc5ccncc5)CC4)CC3)cc21` (centres unmarked) [Ind_CC-109, 2-chloro-N-methyl-N-[6-[9-(pyridin-4-yl-methyl)-3,9-diazaspiro[5.5]undecane-3-carbonyl]-2,3-dihydro-1H-inden-1-yl]-benzamide]: the inhibition at 10 µM worked out at 33% in assay [1] and 29% in assay [2].

Consider `CN(C(=O)c1ccccc1Cl)C1CCc2ccc(C(=O)N3CCC4(CC3)CCC(c3ccc(F)cc3)(N(C)C)CC4)cc21` (centres unmarked) [Ind_CC-110, 2-chloro-N-[6-[9-dimethylamino-9-(4-fluorophenyl)-3-azaspiro[5.5]undecane-3-carbonyl]-2,3-dihydro-1H-inden-1-yl]-N-methyl-benzamide], for which the values for the inhibition at 10 µM in assay [1] and in assay [2] were 52% and 79%, respectively.

In the case of `CN(C(=O)c1ccccc1Cl)C1CCc2ccc(C(=O)N3CCC4(CCN(c5ccncc5)CC4)C3)cc21` (centres unmarked) [Ind_CC-111, 2-chloro-N-methyl-N-[6-(8-pyridin-4-yl-2,8-diazaspiro[4.5]decane-2-carbonyl)-2,3-dihydro-1H-inden-1-yl]-benzamide], the inhibition at 10 µM in assay [1] is 100%; in assay [2], 101%.

On to `CN(C(=O)c1ccccc1Cl)C1CCc2ccc(C(=O)N3CCC4(CC3)CCN(c3ccncc3)C4)cc21` (centres unmarked) [Ind_CC-112, 2-chloro-N-methyl-N-[6-(2-pyridin-4-yl-2,8-diazaspiro[4.5]decane-8-carbonyl)-2,3-dihydro-1H-inden-1-yl]-benzamide], for which the inhibition at 10 µM in assay [1] was 100%; in assay [2], 104%.

Take `O=C(c1ccc2c(c1)C(N(C(=O)c1ccccc1Cl)C1CC1)CC2)N1CCC2(CC1)CCN(c1ccncc1)CC2` (centres unmarked) [Ind_CC-113, 2-chloro-N-cyclopropyl-N-[6-(9-pyridin-4-yl-3,9-diazaspiro[5.5]undecane-3-carbonyl)-2,3-dihydro-1H-inden-1-yl]-benzamide]: the inhibition at 10 µM was found to be 98% in assay [1] and 100% in assay [2].

As for `O=C(c1ccc2c(c1)C(N(C(=O)c1ccccc1Cl)C1CC1)CC2)N1CCC2(CC1)CCN(c1cccnc1)CC2` (centres unmarked) [Ind_CC-114, 2-chloro-N-cyclopropyl-N-[6-(9-pyridin-3-yl-3,9-diazaspiro[5.5]undecane-3-carbonyl)-2,3-dihydro-1H-inden-1-yl]-benzamide], the inhibition at 10 µM in assay [1] is 99%; in assay [2] it was 101%.

In the case of `O=C(c1ccc2c(c1)C(N(C(=O)c1ccccc1Cl)C1CC1)CC2)N1CCC2(CC1)CCN(c1ccc(F)cc1)CC2` (centres unmarked) [Ind_CC-115, 2-chloro-N-cyclopropyl-N-[6-[9-(4-fluorophenyl)-3,9-diazaspiro[5.5]undecane-3-carbonyl]-2,3-dihydro-1H-inden-1-yl]-benzamide], the inhibition at 10 µM in assay [1] worked out at 22%; in assay [2], 64%.

For the molecule `O=C(c1ccc2c(c1)C(N(C(=O)c1ccccc1Cl)C1CC1)CC2)N1CCC2(CCN(Cc3ccncc3)CC2)CC1` (centres unmarked) [Ind_CC-116, 2-chloro-N-cyclopropyl-N-[6-[9-(pyridin-4-yl-methyl)-3,9-diazaspiro[5.5]undecane-3-carbonyl]-2,3-dihydro-1H-inden-1-yl]-benzamide], the inhibition at 10 µM is 68% in assay [1] and 77% in assay [2].

Take `CN(C)C1(c2ccc(F)cc2)CCC2(CCN(C(=O)c3ccc4c(c3)C(N(C(=O)c3ccccc3Cl)C3CC3)CC4)CC2)CC1` (centres unmarked) [Ind_CC-117, 2-chloro-N-cyclopropyl-N-[6-[9-dimethylamino-9-(4-fluorophenyl)-3-azaspiro[5.5]undecane-3-carbonyl]-2,3-dihydro-1H-inden-1-yl]-benzamide]: the figures for the inhibition at 10 µM in assay [1] and in assay [2] were 56% and 77%, respectively.
